Assays:
Details in all cases: 72 h
U2OS [1] = assay: cell viability relative to DMSO; higher = less toxic
Calu-3 [2] = assay: as above
Caco-2 [3] = assay: as above
HepG2 [4] = assay: as above
Vero E6 [5] = assay: as above
U2OS [6] = assay: drug sensitivity score (DSS) for viability; higher = more toxic; extreme values may be limits of the assay
Calu-3 [7] = assay: as above
Caco-2 [8] = assay: as above
HepG2 [9] = assay: as above
Vero E6 [10] = assay: as above
U2OS [11] = assay: relative viability EC50 (midpoint between 100% and the lowest measured viability); higher = less toxic
Calu-3 [12] = assay: as above
Caco-2 [13] = assay: as above
HepG2 [14] = assay: as above
Vero E6 [15] = assay: as above

| SMILES | cell viability (U2OS [1]; 1 nM) | cell viability (U2OS [1]; 10 nM) | cell viability (U2OS [1]; 100 nM) | cell viability (U2OS [1]; 1000 nM) | cell viability (U2OS [1]; 10000 nM) | cell viability (Calu-3 [2]; 1 nM) | cell viability (Calu-3 [2]; 10 nM) | cell viability (Calu-3 [2]; 100 nM) | cell viability (Calu-3 [2]; 1000 nM) | cell viability (Calu-3 [2]; 10000 nM) | cell viability (Caco-2 [3]; 1 nM) | cell viability (Caco-2 [3]; 10 nM) | cell viability (Caco-2 [3]; 100 nM) | cell viability (Caco-2 [3]; 1000 nM) | cell viability (Caco-2 [3]; 10000 nM) | cell viability (HepG2 [4]; 1 nM) | cell viability (HepG2 [4]; 10 nM) | cell viability (HepG2 [4]; 100 nM) | cell viability (HepG2 [4]; 1000 nM) | cell viability (HepG2 [4]; 10000 nM) | cell viability (Vero E6 [5]; 1 nM) | cell viability (Vero E6 [5]; 10 nM) | cell viability (Vero E6 [5]; 100 nM) | cell viability (Vero E6 [5]; 1000 nM) | cell viability (Vero E6 [5]; 10000 nM) | drug sensitivity score (U2OS [6]) | drug sensitivity score (Calu-3 [7]) | drug sensitivity score (Caco-2 [8]) | drug sensitivity score (HepG2 [9]) | drug sensitivity score (Vero E6 [10]) | relative viability EC50 (U2OS [11]) | relative viability EC50 (Calu-3 [12]) | relative viability EC50 (Caco-2 [13]) | relative viability EC50 (HepG2 [14]) | relative viability EC50 (Vero E6 [15]) |
| --- | --- | --- | --- | --- | --- | --- | --- | --- | --- | --- | --- | --- | --- | --- | --- | --- | --- | --- | --- | --- | --- | --- | --- | --- | --- | --- | --- | --- | --- | --- | --- | --- | --- | --- | --- |
| Oc1ccc(C(O)CNCCCCCCNCC(O)c2ccc(O)c(O)c2)cc1O (stereo not given) [hexoprenaline] | 102% | 97.6% | 95.4% | 102% | 95% | 95.8% | 97.9% | 99.7% | 97.9% | 100% | 97.3% | 102% | 93.7% | 95.9% | 88.3% | 103% | 104% | 110% | 93.2% | 103% | 103% | 109% | 99.2% | 101% | 98.7% | 0 | 0 | 0 | 0 | 0 | > 10 µM | > 10 µM | > 10 µM | > 10 µM | > 10 µM |
| COc1cc(Nc2ncc(F)c(Nc3ccc4c(n3)NC(=O)C(C)(C)O4)n2)cc(OC)c1OC [R406] | 95.8% | 100% | 94.3% | 97.8% | 88.9% | 85.3% | 89.8% | 97.6% | 101% | 85.6% | 96.7% | 102% | 86.9% | 92.1% | 75.5% | 98.1% | 103% | 102% | 92.1% | 88.8% | 100% | 99% | 93.8% | 91% | 81.9% | 0 | 0.2 | 1.7 | 0.2 | 0.9 | > 10 µM | > 10 µM | > 10 µM | > 10 µM | > 10 µM |
| CC1(C)O[C@@H]2[C@@H](CO[C@@]3(COS(N)(=O)=O)OC(C)(C)O[C@@H]23)O1 [topiramate] | 98.7% | 94.5% | 98.1% | 105% | 108% | 110% | 96.6% | 94.8% | 95.2% | 103% | 93.2% | 83.1% | 92.2% | 112% | 98.7% | 108% | 96.9% | 91.8% | 95.9% | 94.9% | 89.5% | 98.3% | 95.6% | 97.7% | 107% | 0 | 0 | 0 | 0 | 0 | > 10 µM | > 10 µM | > 10 µM | > 10 µM | > 10 µM |
| C[C@@H]([C@@H](O)c1ccc(O)cc1)N1CCC(O)(c2ccccc2)CC1 [traxoprodil] | 100% | 100% | 96.1% | 110% | 101% | 98.9% | 94.3% | 93.3% | 109% | 108% | 100% | 100% | 92.6% | 99.8% | 97% | 98.1% | 91.4% | 104% | 107% | 101% | 98.2% | 95.3% | 95.7% | 100% | 98.7% | 0 | 0 | 0 | 0 | 0 | > 10 µM | > 10 µM | > 10 µM | > 10 µM | > 10 µM |
| CCCCN1CCCCC1C(=O)Nc1c(C)cccc1C (stereo not given) [bupivacaine] | 95.7% | 96.7% | 94.6% | 103% | 95.7% | 95.9% | 101% | 80.2% | 99.1% | 88.4% | 85.3% | 88.2% | 71.6% | 96.7% | 82.9% | 100% | 106% | 92.7% | 97.2% | 103% | 103% | 103% | 104% | 98.7% | 99.6% | 0 | 0 | 0 | 0 | 0 | > 10 µM | > 10 µM | > 10 µM | > 10 µM | > 10 µM |
| Oc1ccc2c3c1O[C@H]1c4[nH]c5c(c4C[C@@]4(O)[C@@H](C2)N(CC2CC2)CC[C@]314)C[C@@]1(O)[C@H]2Cc3ccc(O)c4c3[C@@]1(CCN2CC1CC1)[C@H]5O4 [nor-binaltorphimine] | 103% | 109% | 106% | 98.6% | 99% | 105% | 99.9% | 100% | 106% | 102% | 97.9% | 90.4% | 100% | 102% | 106% | 93.7% | 108% | 111% | 105% | 99.2% | 92.5% | 98.3% | 91.2% | 95.7% | 108% | 0 | 0 | 0 | 0 | 0 | > 10 µM | > 10 µM | > 10 µM | > 10 µM | > 10 µM |
| CC(C)=CC[C@@H](O)C1=CC(=O)c2c(O)ccc(O)c2C1=O [Shikonin] | 96.9% | 100% | 89.5% | 4.8% | 0.2% | 98.7% | 112% | 96.5% | 36.5% | 2% | 99.6% | 103% | 94.3% | 30.6% | 1.1% | 102% | 97.5% | 97.4% | 2.2% | -0.3% | 95.8% | 96.3% | 91.2% | 6.1% | -0.3% | 18.9 | 13 | 14.1 | 18 | 18.3 | 0.26 µM | 0.711 µM | 0.587 µM | 0.313 µM | 0.29 µM |
| CC(=O)[C@H]1CC[C@H]2[C@@H]3CC=C4C[C@@H](O)CC[C@]4(C)[C@H]3CC[C@]12C [pregnenolone] | 91.5% | 96.4% | 93.5% | 99.1% | 94.7% | 96.8% | 101% | 101% | 97.1% | 98.6% | 97.1% | 95.9% | 88.9% | 90.4% | 90.4% | 98.9% | 96% | 99.6% | 92.7% | 93.6% | 102% | 104% | 99.5% | 88.4% | 95.2% | 0 | 0 | 0.3 | 0 | 0.4 | > 10 µM | > 10 µM | > 10 µM | > 10 µM | > 10 µM |
| O=C1CC2(CCCC2)CC(=O)N1CCNC[C@H]1COc2ccccc2O1 | 103% | 97% | 97.2% | 96.3% | 101% | 92.5% | 107% | 98.4% | 107% | 96.3% | 95.4% | 89% | 99.9% | 98.5% | 101% | 108% | 108% | 93.2% | 110% | 98.3% | 99.4% | 101% | 106% | 92.6% | 97.8% | 0 | 0 | 0 | 0 | 0 | > 10 µM | > 10 µM | > 10 µM | > 10 µM | > 10 µM |
| CC(C)(CO)Cc1cc(C(C)(C)C)c(O)c(C(C)(C)C)c1 [CGP-7930] | 98.2% | 101% | 103% | 101% | 104% | 93.6% | 99.2% | 98.3% | 105% | 102% | 96.8% | 98.5% | 101% | 99.7% | 96% | 109% | 107% | 91.1% | 108% | 101% | 108% | 109% | 95.6% | 108% | 102% | 0 | 0 | 0 | 0 | 0 | > 10 µM | > 10 µM | > 10 µM | > 10 µM | > 10 µM |
| Clc1ccc(C(c2ccccc2Cl)C(Cl)Cl)cc1 (stereo not given) [mitotane] | 98.5% | 93.2% | 98.6% | 97.7% | 97.7% | 92.8% | 102% | 89.1% | 97.1% | 99.6% | 100% | 90.7% | 97.9% | 99.4% | 91.9% | 89.9% | 89.9% | 87.9% | 85.4% | 94.6% | 106% | 96.6% | 101% | 101% | 97.6% | 0 | 0 | 0 | 0 | 0 | > 10 µM | > 10 µM | > 10 µM | > 10 µM | > 10 µM |
| C[C@]12CCC(=O)C=C1C=C[C@@H]1[C@@H]2CC[C@@]2(C)[C@H]1CC[C@@]2(O)CCC(=O)O [potassium-canrenoate] | 97.1% | 104% | 98.9% | 100% | 98.9% | 102% | 94.7% | 107% | 101% | 104% | 93.8% | 112% | 77.3% | 88.9% | 105% | 106% | 89.4% | 85.4% | 87.9% | 99% | 102% | 91.6% | 102% | 88% | 100% | 0 | 0 | 0 | 0 | 0 | > 10 µM | > 10 µM | > 10 µM | > 10 µM | > 10 µM |
| CCC(=O)O[C@]1(C(=O)CO)CC[C@H]2[C@@H]3CCC4=CC(=O)CC[C@]4(C)[C@H]3CC[C@@]21C [CB-03-01] | 99.9% | 104% | 98.3% | 102% | 97% | 93.7% | 97% | 102% | 109% | 94.9% | 99.4% | 103% | 100% | 101% | 101% | 102% | 106% | 90.8% | 95.4% | 96.1% | 101% | 107% | 101% | 96.8% | 99.6% | 0 | 0 | 0 | 0 | 0 | > 10 µM | > 10 µM | > 10 µM | > 10 µM | > 10 µM |
| NS(=O)(=O)c1cc2c(cc1Cl)N=CNS2(=O)=O [chlorothiazide] | 98.1% | 102% | 96.6% | 106% | 99% | 85.8% | 88.9% | 103% | 102% | 96.6% | 92.4% | 99.8% | 95.3% | 91% | 86.6% | 102% | 102% | 95.9% | 97.8% | 99% | 97.8% | 103% | 96.3% | 96.8% | 96.7% | 0 | 0 | 0.1 | 0 | 0 | > 10 µM | > 10 µM | > 10 µM | > 10 µM | > 10 µM |

Reference: the supplement of paper PMC13380429
